Test systems include IGROV1 ovarian; UO-31 renal; HOP-92 NSCLC; COLO 205 colon; SNB-75 CNS; M14 melanoma; HCT-15 colon; NCI-H23 lung; NCI-H522 lung; RPMI-8226 leukemia.
Assay in all cases: NCI-60 cell line screen, 48 h

Several values for one entry are separate records, joined by “and”; a condition that tells them apart may be missing. Equal values may be shown once.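 Tested at 5 concentrations; 48 h exposure; 96-well plates; endpoints linearly interpolated, else capped at highest concentration. Here, GI50 denotes the concentration required for 50% inhibition of growth. TGI is the concentration that stops growth completely.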

Regarding `CCc1ccc(/C=C2/SC(=S)NC2=O)cc1`, the GI50 in the assay on IGROV1 ovarian was 37.5 µM; in the assay with UO-31 renal, 13.2 µM; in the assay with HOP-92 NSCLC, 3.41 µM; with COLO 205 colon, 18.3 µM; in the assay with SNB-75 CNS, 21.7 µM; in the assay with M14 melanoma, 24.3 µM. The GI50 in the assay with HCT-15 colon is 16.9 µM; in the assay on NCI-H23 lung, 18.6 µM; in the assay with NCI-H522 lung it was 15 µM; in the assay on RPMI-8226 leukemia, 16.5 µM. Besides, the TGI in the assay with IGROV1 ovarian was over 100 µM; in the assay with UO-31 renal, 33.1 µM; with HOP-92 NSCLC, 26.4 µM; with COLO 205 colon it was 33.7 µM; in the assay on SNB-75 CNS, over 100 µM; with M14 melanoma, 82.8 µM. The TGI in the assay with HCT-15 colon is 39.8 µM; with NCI-H23 lung, 47 µM; with NCI-H522 lung, 43.8 µM; in the assay with RPMI-8226 leukemia, over 76 µM.

Take `CC(=O)OCC1OC(O[C@@H]2C[C@H]3C(C)(C)[C@H](OC(C)=O)CC[C@]3(C)[C@H]3CC[C@@H]4[C@]5(CC[C@@]4(C)[C@@]32C)O[C@@H]([C@H](O)C(C)(C)O)C[C@@H]5C)C(O)C(O)C1O` (stereo partly drawn): the GI50 in the assay with IGROV1 ovarian is 9.57 µM; with UO-31 renal it was 7.85 µM; with HOP-92 NSCLC it was 10 µM; in the assay with COLO 205 colon, 4.11 µM; in the assay with SNB-75 CNS, 5.13 µM; in the assay with M14 melanoma, 5.01 µM. In addition, the GI50 in the assay on HCT-15 colon was 2.19 µM; in the assay with NCI-H23 lung it was 12.9 µM; in the assay on NCI-H522 lung, 7.1 µM; in the assay on RPMI-8226 leukemia it was 3.37 µM. The TGI in the assay on IGROV1 ovarian is 21.6 µM; in the assay on UO-31 renal it was 20.8 µM; in the assay on HOP-92 NSCLC, 21.6 µM; with COLO 205 colon, 14.3 µM; with SNB-75 CNS it was 18.4 µM; with M14 melanoma, 17.6 µM. Moreover, the TGI in the assay with HCT-15 colon worked out at 5.94 µM; in the assay on NCI-H23 lung, 26.9 µM; with NCI-H522 lung it was 21.2 µM; in the assay with RPMI-8226 leukemia, 19 µM.

As for `O=C(O)c1c(Cl)c(Cl)c(Cl)c(Cl)c1-c1c2cc(I)c(=O)c(I)c-2oc2c(I)c(O)c(I)cc12`, the GI50 is 88.2 µM and 34.9 µM in the assay on IGROV1 ovarian; 43.5 µM in the assay on UO-31 renal; 19.3 µM and 29.7 µM in the assay on HOP-92 NSCLC; 45.8 µM in the assay with COLO 205 colon; 32.1 µM and 34 µM with SNB-75 CNS; 58.7 µM with M14 melanoma. Moreover, the GI50 was 55.7 µM in the assay with HCT-15 colon; 47 µM in the assay on NCI-H23 lung; 26.6 µM and 39.4 µM with NCI-H522 lung; 122 µM in the assay on RPMI-8226 leukemia. Further, the TGI in the assay with IGROV1 ovarian was 83.8 µM; in the assay on UO-31 renal, 107 µM; in the assay with HOP-92 NSCLC it was 68 µM and 71.6 µM; in the assay on COLO 205 colon it was 159 µM; with SNB-75 CNS it was 79.8 µM; in the assay with M14 melanoma it was over 200 µM. Also, the TGI in the assay on HCT-15 colon is 162 µM; with NCI-H23 lung it was 125 µM; in the assay on NCI-H522 lung it was 59.9 µM and 83.2 µM; in the assay with RPMI-8226 leukemia, over 200 µM.

Turning to `COc1cc(C(=O)c2c(-c3ccccc3)oc3ccccc23)cc(OC)c1O`, the GI50 in the assay with IGROV1 ovarian was 2.6 µM; with UO-31 renal it was 3.14 µM; with HOP-92 NSCLC, 0.595 µM; in the assay with COLO 205 colon, 18.9 µM; in the assay on SNB-75 CNS it was 0.231 µM; with M14 melanoma, 0.58 µM. Moreover, the GI50 in the assay with HCT-15 colon is 0.667 µM; in the assay with NCI-H23 lung, 3.96 µM; with NCI-H522 lung it was 0.773 µM; in the assay on RPMI-8226 leukemia, 1.83 µM. In addition, the TGI came out at 18.7 µM in the assay with IGROV1 ovarian; 19.4 µM with UO-31 renal; 12.7 µM with HOP-92 NSCLC; 43.3 µM in the assay on COLO 205 colon; 2.22 µM in the assay with SNB-75 CNS; 10.7 µM in the assay with M14 melanoma. Moreover, the TGI in the assay with HCT-15 colon was 15.5 µM; in the assay on NCI-H23 lung, 22.6 µM; in the assay on NCI-H522 lung it was 19.6 µM; with RPMI-8226 leukemia, 12.9 µM.

For the compound `O=C(/C=C/c1cccs1)Nc1ncc(Cc2ccccc2F)s1`, the GI50 in the assay with IGROV1 ovarian is 0.541 µM; in the assay with UO-31 renal it was 0.437 µM; in the assay with HOP-92 NSCLC it was 1.39 µM; in the assay with COLO 205 colon, 0.325 µM; in the assay on SNB-75 CNS, 0.154 µM; in the assay on M14 melanoma, 0.12 µM. The GI50 is 0.123 µM with HCT-15 colon, 2.78 µM with NCI-H23 lung, 0.194 µM in the assay with NCI-H522 lung and 0.33 µM in the assay with RPMI-8226 leukemia. Moreover, the TGI in the assay on IGROV1 ovarian is over 100 µM; in the assay on UO-31 renal, over 100 µM; in the assay with HOP-92 NSCLC, over 100 µM; with COLO 205 colon it was 26.9 µM; in the assay on SNB-75 CNS, 0.651 µM; in the assay on HCT-15 colon, over 100 µM. The TGI in the assay on NCI-H23 lung and in the assay with RPMI-8226 leukemia was over 100 µM throughout.

`COc1ccc2c(c1)[n+]([O-])c(-c1ccc(Cl)c(Cl)c1)c(N)[n+]2[O-]`: the TGI in the assay with IGROV1 ovarian is 93.2 µM; in the assay with UO-31 renal, over 100 µM; with HOP-92 NSCLC, over 100 µM; in the assay with COLO 205 colon, 33.6 µM; with SNB-75 CNS it was over 100 µM; in the assay with M14 melanoma, 72.2 µM. The TGI is over 100 µM in the assay on HCT-15 colon, 30.9 µM with NCI-H23 lung, 27.6 µM with NCI-H522 lung and over 100 µM in the assay on RPMI-8226 leukemia.

As for `COc1ccc(-c2nc(N)nc(-c3cc(C)ccc3O)c2Cl)cc1`, the TGI is over 100 µM with IGROV1 ovarian; over 100 µM with UO-31 renal; over 100 µM in the assay with HOP-92 NSCLC; over 100 µM with COLO 205 colon; 63.9 µM in the assay on SNB-75 CNS; over 100 µM in the assay with M14 melanoma. The TGI in the assay with HCT-15 colon, in the assay with NCI-H23 lung, in the assay with NCI-H522 lung and in the assay with RPMI-8226 leukemia was over 100 µM each time.

Regarding `Nc1ccccc1C#Cc1ccccc1C#CCCCCO`, the GI50 in the assay with IGROV1 ovarian is 17.5 µM; in the assay on UO-31 renal, 20.3 µM; in the assay on HOP-92 NSCLC, 28.1 µM; with COLO 205 colon, 23.7 µM; with SNB-75 CNS it was 11.3 µM; with M14 melanoma it was 17.1 µM. For the same compound, the GI50 with HCT-15 colon was 19.8 µM; with NCI-H23 lung, 24.4 µM; in the assay on NCI-H522 lung it was 14.3 µM; in the assay on RPMI-8226 leukemia, 29.8 µM. Besides, the TGI in the assay with IGROV1 ovarian was 46.7 µM; in the assay with UO-31 renal it was 54.8 µM; in the assay on HOP-92 NSCLC it was 80.4 µM; in the assay on COLO 205 colon it was 59.3 µM; with SNB-75 CNS, 33.6 µM; with M14 melanoma, 36.2 µM. The TGI in the assay with HCT-15 colon amounted to 42.5 µM; with NCI-H23 lung, 58.1 µM; in the assay on NCI-H522 lung it was 31.2 µM; in the assay on RPMI-8226 leukemia, 72.2 µM.

The values are drawn from PubChem BioAssay (NCI).
